# In article PMC9805530 (European journal of medicinal chemistry, 2022):
# Molecular target: Sirt6 (Homo sapiens, UniProt Q8N6T7)
# Assay: Sirt6-dependent peptide deacetylation, Fluor de Lys
# Settings: compound at 100 μM; mean ± SD, at least two independent experiments
# Sequence of Sirt6 (Q8N6T7 whole entry): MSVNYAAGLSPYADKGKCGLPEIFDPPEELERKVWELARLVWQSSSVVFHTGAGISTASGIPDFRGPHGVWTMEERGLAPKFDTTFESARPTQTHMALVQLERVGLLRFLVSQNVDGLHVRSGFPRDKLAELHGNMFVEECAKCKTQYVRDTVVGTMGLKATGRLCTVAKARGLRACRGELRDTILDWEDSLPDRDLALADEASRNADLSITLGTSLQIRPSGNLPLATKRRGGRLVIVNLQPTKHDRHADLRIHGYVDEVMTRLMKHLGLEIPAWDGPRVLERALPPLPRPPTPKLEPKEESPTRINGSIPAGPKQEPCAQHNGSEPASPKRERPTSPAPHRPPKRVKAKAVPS
row,SMILES,Activation Fold 100 μM
1,"OC1CCN(c2ncccc2C2Nc3ccccc3-n3cccc32)CC1 (stereo not drawn) [Compound 27, 1-(3-(4,5-Dihydropyrrolo[1,2-a]quinoxalin-4-yl)pyridin-2-yl)piperidin-4-ol]",~ 2 fold
2,"O=S1(=O)CCN(c2ncccc2C2Nc3ccccc3-n3cccc32)CC1 (stereo not drawn) [Compound 26, 4-(3-(4,5-Dihydropyrrolo[1,2-a]quinoxalin-4-yl)pyridin-2-yl)thiomorpholine 1,1-dioxide]",~ 2 fold
3,"FC1(F)CCN(c2ncccc2C2Nc3ccccc3-n3cccc32)CC1 (stereo not drawn) [Compound 25, 4-(2-(4,4-Difluoropiperidin-1-yl)pyridin-3-yl)-4,5-dihydropyrrolo[1,2-a]quinoxaline]",~ 2 fold
